Legend:
[1] = In vitro microsomal metabolic stability, CD-1 mouse liver microsomes; type: in vitro ADME; conditions: for CLint scaled at 1 µM / microsomal CLint at 1 µM: CD-1, mouse, mouse liver microsomes, pH 7.2; for half-life at 1 µM: CD-1, pH 7.2, 0.5 mg/ml protein, NADPH; for half-life at 1 µM / Remaining (T = 60 min) / Remaining (T = NCF60 min): Mouse liver microsomes; for Remaining (T = 60 min): with NADPH; for Remaining (T = NCF60 min): without NADPH regenerating system; for Remaining (T = 60 min) / Remaining (T = NCF60 min): 60 min
Outline: (§1)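 Compounds at 1 μM incubated at 37° C with pooled CD-1 mouse or human liver microsomes (0.5 mg/mL protein) plus NADPH regenerating system in 50 mM potassium phosphate, pH 7.2, 3.3 mM MgCl2; sampled at 0–60 min, 60-min no-NADPH control. Parent loss by LC/MS/MS analyte/IS peak-area ratio, n=1.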

[2] = Pharmacokinetic studies in male CD-1 mice (plasma, IV and PO); type: in vivo, mouse; conditions: male; for clearance / Vd / bioavailability: CD-1, plasma, mouse; for clearance / Vd / half-life: IV 2 mg/kg; for clearance: read-out: CI(mL/min/kg), compounds clearance following IV administration; for Vd: read-out: Vdss (L/kg), volume of distribution following IV administration; for bioavailability: PO 20 mg/kg vs IV 2 mg/kg; for half-life / Cmax / concentration at 8 h / concentration at 24 h: CD-1, mouse plasma; for half-life: read-out: IV T1/2 (converted); for Cmax / concentration at 8 h / concentration at 24 h: PO 20 mg/kg; for concentration at 8 h: read-out: Compound concentration at 8-hour, PO administration; for concentration at 24 h: read-out: Compound concentration at 24-hour, PO administration
Description: Animal experiments were carried out at Wuxi AppTec. Male 6-8 weeks old CDI mice were obtained from Hilltop Labs. Following arrival at Wuxi AppTec, mice were housed in animal rooms with environmental control (temperature: 20 to 26° C.; lighting: 12 hour light/dark cycle). Mice were fed with certified pellet diet (Certified Rodent Diet #5002 by LabDiet). Water was provided to the animals ad libitum. Mice were acclimated to the facility for at least 3 days prior to starting experiments.
Appropriate amount of test article formulated in 5% ethanol, 5% Tween-80 and 5% PEG-400, 85% water. Formulation was prepared on the day of dosing and dosed within 2 hours following preparation of formulations. Dose accuracy was determined by LC-MS/MS.
Dose formulation(s) were administered following facility SOPs. Dose volumes were determined individually prior to dosing based on animals' body weights.
About 40 μL of blood samples were collected via peripheral veins (e.g. saphenous veins) at each pre-defined time point. Blood samples were collected into tubes containing K2EDTA as anti-coagulant and kept on ice until centrifugation.
Blood samples were centrifuged at 4° C., 3000 g for 5 min within half an hour of collection. Plasma was transferred into polypropylene tubes or 96-well plates, promptly frozen on dry ice and stored at −70±10° C. until analysis by LC-MS/MS.
Test compound concentration in mouse plasma was determined with LC-MS/MS method using a calibration curve with at least 6 non-zero calibration standards.
The pharmacokinetics (PK) of the test article was analyzed using Phoenix WinNonlin software (version 8.3) and non-compartmental analysis model. Derived PK parameters include, but not limited to, C0, CLp, Vdss, Cmax, Tmax, T1/2, AUC(0-t), AUC(0-inf), MRT(0-t), MRT(0-inf) and % F (bioavailability).

[3] = test system: S6K1 (Thr389) phosphorylation (mTORC1 activity) in wild-type (WT) 293T cells; test: Inhibition of S6K1 (Thr389) phosphorylation in wild-type 293T cells (ELISA); type: cell-based, human; conditions: for IC50: Homo sapiens, HEK-293T, 2 h, wild-type 293T cells, 2 hours treatment; for fold lower potency compared with RAD001 (by IC50) / extent of inhibition of S6K1 (Thr389) phosphorylation: wild-type cells; for extent of inhibition of S6K1 (Thr389) phosphorylation: with increasing concentrations
Outline: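 WT 293T cells in DMEM + 10% FBS, grown 24 h to ~80% confluence, then treated 2 h at 37 °C in duplicate with compounds over an 8–11-point range from 0.001 pM to 10 μM. DMSO vehicle served as negative control. Phospho-S6K1 (Thr389) measured by ELISA.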

[4] = test system: S6K1 (Thr389) phosphorylation (mTORC1 activity) in FKBP12 knock-out 293T cells; test: Inhibition of S6K1 (Thr389) phosphorylation in FKBP12 knock-out 293T cells (ELISA); type: cell-based, human; conditions: for selectivity for FKBP12 compared with RAD001 (in words): wild-type versus FKBP12 knock-out cells
Outline: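 CRISPR-generated FKBP12 knock-out HEK293T cells, alongside wild-type, were treated in duplicate for 2 hours at 37 °C with an 8–11-point dose range (0.001 pM–10 μM). Phospho-S6K1 Thr389 quantified by ELISA as an mTORC1 activity read-out, with DMSO as negative control.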

[5] = In vitro microsomal metabolic stability, human liver microsomes; type: in vitro ADME; conditions: for Remaining (T = 60 min) / Remaining (T = NCF60 min) / half-life at 1 µM: Human liver microsomes; for Remaining (T = 60 min): with NADPH; for Remaining (T = NCF60 min): without NADPH regenerating system; for Remaining (T = 60 min) / Remaining (T = NCF60 min): 60 min; for microsomal CLint at 1 µM / CLint scaled at 1 µM: human, human liver microsomes; for microsomal CLint at 1 µM / half-life at 1 µM / CLint scaled at 1 µM: pH 7.2; for half-life at 1 µM: 0.5 mg/ml protein, NADPH
Outline: as §1

CLint scaled at 1 µM [1] | microsomal CLint at 1 µM [1] | half-life at 1 µM [1] | Remaining (T = 60 min) [1] | Remaining (T = NCF60 min) [1] | clearance [2] | Vd [2] | bioavailability [2] | half-life [2] | Cmax [2] | Remaining (T = 60 min) [5] | Remaining (T = NCF60 min) [5] | microsomal CLint at 1 µM [5] | half-life at 1 µM [5] | CLint scaled at 1 µM [5] | Compound | IC50 [3] | fold lower potency compared with RAD001 (by IC50) [3] | extent of inhibition of S6K1 (Thr389) phosphorylation [3] | inhibition of S6K1 (Thr389) phosphorylation in the absence of FKBP12 (in words) ([4]; FKBP12 knock-out cells) | selectivity for FKBP12 compared with RAD001 (in words) [4] | also measured
64.8 mL/min/kg | 16.4 µL/min/mg | 1.41 h | 64.30% | 81.40% | 1.13 mL/min/kg | 0.475 L/kg | 17% | 5.63 h | 9180 ng/mL | 0.00% | 71.30% | 194 µL/min/mg | 0.119 h | – | CO[C@@H]1C[C@H](C[C@@H](C)[C@@H]2CC[C@H](C)/C=C(\C)[C@@H](O)[C@@H](OC)C(=O)[C@H](C)C[C@H](C)/C=C/C=C/C=C(\C)C(Nc3cnon3)C[C@@H]3CC[C@@H](C)[C@@](O)(O3)C(=O)C(=O)N3CCCCC3C(=O)O2)CC[C@H]1O (stereo partly drawn) [Compound 45, (3S,6S,7E,9R,10R,12R,14S,15E,17E,19E,23S,26R,27R,34aS)-21-((1,2,5-oxadiazol-3-yl)amino)-9,27-dihydroxy-3-((R)-1-((1S,3R,4R)-4-hydroxy-3-methoxycyclohexyl)propan-2-yl)-10-methoxy-6,8,12,14,20,26-hexamethyl-5,6,9,10,12,13,14,21,22,23,24,25,26,27,32,33,34,34a-octadecahydro-3H-23,27-epoxypyrido[2,1-c][1]oxa[4]azacyclohentriacontine-1,11,28,29(4H,31H)-tetraone] | 8.4 nM | ~18 fold | completely inhibit | much less inhibition of S6K1 phosphorylation | relatively more selective for FKBP12 compared with RAD001 | concentration at 8 h [2]: 1520 ng/mL; concentration at 24 h [2]: 239 ng/mL; fold less potent compared with RAD001 ([4]; FKBP12 knock-out cells, at similar level of inhibition): ~100 fold; inhibition at 10 µM ([4]; Homo sapiens, HEK-293T, FKBP12 knock-out cells, 10 μM (highest tested concentration)): ~25%
41.9 mL/min/kg | 10.6 µL/min/mg | 2.18 h | 69.80% | 92.30% | 2.31 mL/min/kg | 0.828 L/kg | 28.5% | 5.25 h | 4120 ng/mL | 6.60% | 92.80% | 89.9 µL/min/mg | 0.257 h | 80.9 mL/min/kg | CO[C@@H]1CC(C[C@@H](C)[C@@H]2CC[C@H](C)/C=C(\C)[C@@H](O)[C@@H](OC)C(=O)[C@H](C)C[C@H](C)/C=C/C=C/C=C(\C)C(Nc3ccccc3)CC3CC[C@@H](C)[C@@](O)(O3)C(=O)C(=O)N3CCCC[C@H]3C(=O)O2)CC[C@H]1O (stereo partly drawn) [Compound 26, (3S,6S,7E,9R,10R,12R,14S,15E,17E,19E,23S,26R,27R,34aS)-9,27-dihydroxy-3-((R)-1-((1S,3R,4R)-4-hydroxy-3-methoxycyclohexyl)propan-2-yl)-10-methoxy-6,8,12,14,20,26-hexamethyl-21-(phenylamino)-5,6,9,10,12,13,14,21,22,23,24,25,26,27,32,33,34,34a-octadecahydro-3H-23,27-epoxypyrido[2,1-c][1]oxa[4]azacyclohentriacontine-1,11,28,29(4H,31H)-tetraone] | 0.55 nM | – | complete inhibition | not inhibit S6K1 at any tested concentrations | more selective to FKBP12 compared with RAD001 | concentration at 8 h [2]: 1320 ng/mL; concentration at 24 h [2]: 184 ng/mL; IC50 of inhibition of S6K1 (Thr389) ([4]; FKBP12 knock-out 293T cells): not measurable/detectable
255 mL/min/kg | 64.3 µL/min/mg | 0.358 h | 15% | 85% | – | – | – | – | – | 0.20% | 89% | 202 µL/min/mg | 0.114 h | 182 mL/min/kg | CO[C@@H]1C[C@H](C[C@@H](C)[C@@H]2CC[C@H](C)/C=C(\C)[C@@H](O)[C@@H](OC)C(=O)[C@H](C)C[C@H](C)/C=C/C=C/C=C(\C)C(NS(=O)(=O)c3cnoc3C)C[C@@H]3CC[C@@H](C)[C@@](O)(O3)C(=O)C(=O)N3CCCCC3C(=O)O2)CC[C@H]1O (stereo partly drawn) [Compound 51, N-((3S,6S,7E,9R,10R,12R,14S,15E,17E,19E,23S,26R,27R,34aS)-9,27-dihydroxy-3-((R)-1-((1S,3R,4R)-4-hydroxy-3-methoxycyclohexyl)propan-2-yl)-10-methoxy-6,8,12,14,20,26-hexamethyl-1,11,28,29-tetraoxo-1,4,5,6,9,10,11,12,13,14,21,22,23,24,25,26,27,28,29,31,32,33,34,34a-tetracosahydro-3H-23,27-epoxypyrido[2,1-c][1]oxa[4]azacyclohentriacontin-21-yl)-5-methylisoxazole-4-sulfonamide] | 4.53 nM | 12 fold | near complete inhibition | no further inhibition at 10 μM | not completely selective to FKBP12 | inhibition at 1 µM ([4]; Homo sapiens, HEK-293T, FKBP12 knock-out cells, 1 μM): 18%
40.8 mL/min/kg | 10.3 µL/min/mg | 2.25 h | 76% | 112% | – | – | – | – | – | 47% | 102% | 24.7 µL/min/mg | 0.937 h | 22.2 mL/min/kg | CCOc1cccc(NC2C[C@@H]3CC[C@@H](C)[C@@](O)(O3)C(=O)C(=O)N3CCCCC3C(=O)O[C@H]([C@H](C)C[C@@H]3CC[C@@H](O)[C@H](OC)C3)CC[C@H](C)/C=C(\C)[C@@H](O)[C@@H](OC)C(=O)[C@H](C)C[C@H](C)/C=C/C=C/C=C/2C)c1 (stereo partly drawn) [Compound 59, (3S,6S,7E,9R,10R,12R,14S,15E,17E,19E,23S,26R,27R,34aS)-21-((3-ethoxyphenyl)amino)-9,27-dihydroxy-3-((R)-1-((1S,3R,4R)-4-hydroxy-3-methoxycyclohexyl)propan-2-yl)-10-methoxy-6,8,12,14,20,26-hexamethyl-5,6,9,10,12,13,14,21,22,23,24,25,26,27,32,33,34,34a-octadecahydro-3H-23,27-epoxypyrido[2,1-c][1]oxa[4]azacyclohentriacontine-1,11,28,29(4H,31H)-tetraone] | 0.17 nM | 2 fold | near complete inhibition | inhibited the mTORC1 signaling in a dose dependent manner | relatively not FKBP12 selective | –

Source: US20240360153A1 (Regeneron Pharmaceuticals, Inc., priority 2023, published 2024)
